For experiment [1], the target named is PARP1 (Homo sapiens, UniProt P09874). Put plainly: IC50 of dual-target inhibitors against PARP1. It counts as biochemical.
For experiment [2], the target named is CDK4 (Homo sapiens, UniProt P11802). The experiment can be described thus: IC50 of dual-target inhibitors against CDK4. It is filed as biochemical. As to the method: The effectiveness of the present application was verified through the following tests: • (1) IC50 values of the dual-target inhibitors (Examples 1-11) against CDK4 were determined.

This is an account of results in patent publication US20250381185A1, “CDK4/PARP1 DUAL-TARGET INHIBITOR AND USE THEREOF” (YANBIAN UNIVERSITY, priority 2024, published 2025).

Structures are written as SMILES. Where only a bound is given, the exact number is not on record here.

In general, IC50 refers to the concentration that inhibits the measured activity by half.

Sequence of PARP1 (P09874 whole entry): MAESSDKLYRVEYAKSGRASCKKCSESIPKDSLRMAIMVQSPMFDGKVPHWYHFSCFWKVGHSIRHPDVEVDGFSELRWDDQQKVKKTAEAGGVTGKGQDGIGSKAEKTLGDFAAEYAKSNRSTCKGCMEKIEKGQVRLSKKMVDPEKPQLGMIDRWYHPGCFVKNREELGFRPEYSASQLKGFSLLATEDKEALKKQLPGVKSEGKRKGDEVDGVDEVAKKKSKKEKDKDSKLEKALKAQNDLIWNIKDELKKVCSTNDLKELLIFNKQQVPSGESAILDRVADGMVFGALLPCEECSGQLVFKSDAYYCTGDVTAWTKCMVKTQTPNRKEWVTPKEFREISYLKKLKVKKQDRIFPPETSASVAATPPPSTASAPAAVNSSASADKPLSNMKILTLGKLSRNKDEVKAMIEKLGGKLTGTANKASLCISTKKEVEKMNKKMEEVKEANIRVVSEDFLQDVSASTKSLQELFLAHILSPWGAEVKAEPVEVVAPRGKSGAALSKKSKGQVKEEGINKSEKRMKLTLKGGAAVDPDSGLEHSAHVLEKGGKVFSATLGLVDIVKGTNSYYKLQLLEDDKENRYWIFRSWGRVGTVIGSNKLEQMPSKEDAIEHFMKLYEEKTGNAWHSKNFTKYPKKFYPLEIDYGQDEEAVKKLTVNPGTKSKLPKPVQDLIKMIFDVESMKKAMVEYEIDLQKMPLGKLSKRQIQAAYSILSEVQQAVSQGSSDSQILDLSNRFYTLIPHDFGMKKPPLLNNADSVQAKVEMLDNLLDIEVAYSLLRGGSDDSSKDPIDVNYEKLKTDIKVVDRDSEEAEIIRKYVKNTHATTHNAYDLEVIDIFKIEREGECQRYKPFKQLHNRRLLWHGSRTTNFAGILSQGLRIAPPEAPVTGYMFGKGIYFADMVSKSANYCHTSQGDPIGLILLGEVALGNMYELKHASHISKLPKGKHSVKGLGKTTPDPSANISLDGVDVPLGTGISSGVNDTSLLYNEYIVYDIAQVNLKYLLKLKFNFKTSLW
Sequence of CDK4 (P11802 whole entry): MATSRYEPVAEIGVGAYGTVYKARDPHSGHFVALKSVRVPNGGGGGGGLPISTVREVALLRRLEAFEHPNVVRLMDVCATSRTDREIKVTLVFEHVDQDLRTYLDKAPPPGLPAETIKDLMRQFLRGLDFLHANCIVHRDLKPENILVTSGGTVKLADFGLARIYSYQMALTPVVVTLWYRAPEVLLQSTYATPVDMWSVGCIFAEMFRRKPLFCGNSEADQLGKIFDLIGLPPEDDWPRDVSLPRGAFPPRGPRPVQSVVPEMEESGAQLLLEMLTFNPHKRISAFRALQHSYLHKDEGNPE
Sequence of CDK4 (P24385 whole entry partner): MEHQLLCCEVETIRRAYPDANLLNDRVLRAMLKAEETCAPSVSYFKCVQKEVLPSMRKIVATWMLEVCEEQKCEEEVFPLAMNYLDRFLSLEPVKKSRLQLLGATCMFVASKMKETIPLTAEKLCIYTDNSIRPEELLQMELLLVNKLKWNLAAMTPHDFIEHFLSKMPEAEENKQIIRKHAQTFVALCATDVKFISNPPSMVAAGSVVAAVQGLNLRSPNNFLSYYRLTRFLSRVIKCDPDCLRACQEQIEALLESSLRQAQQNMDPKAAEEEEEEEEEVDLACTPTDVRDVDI

As for `CN(C)C(=O)c1cc2cnc(NCCCOC(=O)c3cc(Cc4n[nH]c(=O)c5ccccc45)ccc3F)nc2n1C1CCCC1` [Compound F2], the IC50 in experiment [1] was 10 to 100 nM; in experiment [2], more than 500 nM.

Regarding `Cc1nc2c(F)cc(-c3nc(Nc4ccc(C(=O)Nc5cccc(Cc6n[nH]c(=O)c7ccccc67)c5)cc4)ncc3F)cc2n1C(C)C` [Compound A2], the values for the IC50 in experiment [1] and in experiment [2] were more than 500 nM and less than 10 nM, respectively.

As for `CN(C)C(=O)c1cc2cnc(NNC(=O)c3cc(Cc4n[nH]c(=O)c5ccccc45)ccc3F)nc2n1C1CCCC1` [Compound D1], the IC50 in experiment [1] is 100 to 500 nM; in experiment [2], more than 500 nM.

For `CC(C)[C@H](NC(=O)c1cc(Cc2n[nH]c(=O)c3ccccc23)ccc1F)C(=O)NNc1ncc2c(cc(C(=O)N(C)C)n2C2CCCC2)n1` [Compound E8], the IC50 in experiment [1] is 10 to 100 nM; in experiment [2], more than 500 nM.

`Cc1nc2c(F)cc(-c3nc(Nc4ccc(C(=O)N5CCN(C(=O)c6cc(Cc7n[nH]c(=O)c8ccccc78)ccc6F)CC5)cc4)ncc3F)cc2n1C(C)C` [Compound C7]: the values for the half-inhibitory concentration (IC50) in experiment [1] and in experiment [2] were 10 to 100 nM and less than 10 nM, respectively.

In the case of `CC(C)[C@H](NC(=O)c1cc(Cc2n[nH]c(=O)c3ccccc23)ccc1F)C(=O)NCCNc1ncc2cc(C(=O)N(C)C)n(C3CCCC3)c2n1` [Compound E2], the IC50 in experiment [1] is 10 to 100 nM; in experiment [2] it was 100 to 500 nM.

Take `CN(C)C(=O)c1cc2cnc(NCCNC(=O)CNC(=O)c3cc(Cc4n[nH]c(=O)c5ccccc45)ccc3F)nc2n1C1CCCC1` [Compound E1]: the IC50 in experiment [1] was less than 10 nM; in experiment [2] it was 100 to 500 nM.

Take `Cc1nc2c(F)cc(-c3nc(Nc4ccc(C(=O)N5CCN(c6cccc(NC(=O)c7cc(Cc8n[nH]c(=O)c9ccccc89)ccc7F)c6)CC5)cc4)ncc3F)cc2n1C(C)C` [Compound C3]: the IC50 in experiment [1] is more than 500 nM; in experiment [2], 10 to 100 nM.

For the compound `Cc1nc2c(F)cc(-c3nc(Nc4ccc(NC(=O)CCC(=O)Nc5cccc(Cc6n[nH]c(=O)c7ccccc67)c5)cc4)ncc3F)cc2n1C(C)C` [Compound A4], the half-maximal inhibitory concentration (IC50) is 100 to 500 nM in experiment [1] and less than 10 nM in experiment [2].

Consider `Cc1nc2c(F)cc(-c3nc(Nc4ccc(NC(=O)c5cc(Cc6n[nH]c(=O)c7ccccc67)ccc5F)cc4)ncc3F)cc2n1C(C)C` [Compound C1], for which the values for the IC50 in experiment [1] and in experiment [2] were 100 to 500 nM and 10 to 100 nM, respectively.

Regarding `CN(C)C(=O)c1cc2cnc(Nc3ccc(NC(=O)CNC(=O)c4cc(Cc5n[nH]c(=O)c6ccccc56)ccc4F)cc3)nc2n1C1CCCC1` [Compound D14], the 50% inhibitory concentration (IC50) in experiment [1] is 10 to 100 nM; in experiment [2] it was less than 10 nM.

As to `Cc1nc2c(F)cc(-c3nc(Nc4cccc(C(=O)N5CCN(C(=O)c6cc(Cc7n[nH]c(=O)c8ccccc78)ccc6F)CC5)c4)ncc3F)cc2n1C(C)C` [Compound C8], the concentration for half-maximal inhibition (IC50) in experiment [1] and in experiment [2] was 10 to 100 nM each time.

With `CN(C)C(=O)c1cc2nc(NCCNC(=O)[C@H](Cc3ccccc3)NC(=O)c3cc(Cc4n[nH]c(=O)c5ccccc45)ccc3F)ncc2n1C1CCCC1` [Compound E4], the half-inhibitory concentration (IC50) in experiment [1] is 10 to 100 nM; in experiment [2], more than 500 nM.

With `Cc1nc2c(F)cc(-c3nc(Nc4cccc(C(=O)Nc5cccc(Cc6n[nH]c(=O)c7ccccc67)c5)c4)ncc3F)cc2n1C(C)C` [Compound A5], the results for the IC50 in experiment [1] and in experiment [2] were more than 500 nM and 10 to 100 nM, respectively.

On to `Cc1nc2c(F)cc(-c3nc(Nc4ccc(N5CCN(C(=O)c6cc(Cc7n[nH]c(=O)c8ccccc78)ccc6F)CC5)cc4)ncc3F)cc2n1C(C)C` [Compound C5], for which the half-inhibitory concentration (IC50) in experiment [1] and in experiment [2] was less than 10 nM throughout.

For the compound `Cc1nc2c(F)cc(-c3nc(Nc4ccc(CC(=O)N5CCN(C(=O)c6cc(Cc7n[nH]c(=O)c8ccccc78)ccc6F)CC5)cc4)ncc3F)cc2n1C(C)C` [Compound C9], the figures for the half-maximal inhibitory concentration (IC50) in experiment [1] and in experiment [2] were 10 to 100 nM and less than 10 nM, respectively.

In the case of `CN(C)C(=O)c1cc2cnc(N3CCN(C(=O)c4cc(Cc5n[nH]c(=O)c6ccccc56)ccc4F)CC3)nc2n1C1CCCC1` [Compound D9], the IC50 was less than 10 nM in experiment [1] and more than 500 nM in experiment [2].

For the compound `Cc1nc2c(F)cc(-c3nc(Nc4ccc(C(=O)N5CCN(c6ccc(NC(=O)c7cc(Cc8n[nH]c(=O)c9ccccc89)ccc7F)cc6)CC5)cc4)ncc3F)cc2n1C(C)C` [Compound C2], the figures for the 50% inhibitory concentration (IC50) in experiment [1] and in experiment [2] were more than 500 nM and 10 to 100 nM, respectively.

Take `CN(C)C(=O)c1cc2cnc(NCCCCCCNC(=O)c3cc(Cc4n[nH]c(=O)c5ccccc45)ccc3F)nc2n1C1CCCC1` [Compound D6]: the concentration for half-maximal inhibition (IC50) in experiment [1] is less than 10 nM; in experiment [2] it was more than 500 nM.

For the compound `Cc1nc2c(F)cc(-c3nc(Nc4cccc(Cc5n[nH]c(=O)c6ccccc56)c4)ncc3F)cc2n1C(C)C` [Compound A1], the half-maximal inhibitory concentration (IC50) in experiment [1] was 100 to 500 nM; in experiment [2], less than 10 nM.

As to `CN(C)C(=O)c1cc2cnc(NCCOC(=O)c3cc(Cc4n[nH]c(=O)c5ccccc45)ccc3F)nc2n1C1CCCC1` [Compound F1], the figures for the half-maximal inhibitory concentration (IC50) in experiment [1] and in experiment [2] were 10 to 100 nM and more than 500 nM, respectively.

For the compound `Cc1nc2c(F)cc(-c3nc(Nc4ccc(CN5CCN(C(=O)c6cc(Cc7n[nH]c(=O)c8ccccc78)ccc6F)CC5)cc4)ncc3F)cc2n1C(C)C` [Compound C6], the IC50 in experiment [1] is 10 to 100 nM; in experiment [2] it was less than 10 nM.

In the case of `Cc1nc2c(F)cc(-c3nc(Nc4ccc(CC(=O)Nc5cccc(Cc6n[nH]c(=O)c7ccccc67)c5)cc4)ncc3F)cc2n1C(C)C` [Compound A3], the half-inhibitory concentration (IC50) in experiment [1] and in experiment [2] was 10 to 100 nM each time.

Regarding `CN(C)C(=O)c1cc2cnc(NCCNC(=O)[C@H](Cc3c[nH]c4ccccc34)NC(=O)c3cc(Cc4n[nH]c(=O)c5ccccc45)ccc3F)nc2n1C1CCCC1` [Compound E3], the IC50 is 10 to 100 nM in experiment [1] and more than 500 nM in experiment [2].

Regarding `Cc1nc2c(F)cc(-c3nc(Nc4ccc(Cc5n[nH]c(=O)c6ccccc56)cc4)ncc3F)cc2n1C(C)C` [Compound B1], the IC50 was more than 500 nM in experiment [1] and less than 10 nM in experiment [2].
